# Measurements: patent US10495571B2 (priority 2014, dated 2019)
# Conditions: CMD-3D layer without HSA, PBS buffer, drug cM1 0.00-50 μM, DMSO 0.5%, 5%
# Excerpt: The functional layer AF1 of the second sample region REG2 was otherwise similar to the functional layer AF1 of the first sample region REG1, except that the functional layer AF1 of the first sample region REG1 comprised HSA. […] B0b denotes the input beam impinging on the second sample region REG2, and B1b denotes the reflected beam reflected from the second sample region REG2. ZV2 denotes the sample volume of the second sample region REG2.
# Prior to the second test, the functional layer AF1 of the second sample region was formed by a method, which comprised: • attaching a layer of CMD-3D to the metal layer 120 of the sensor, • washing the layer of CMD-3D with an aqueous solution, which comprised 2M NaCl and 10 mM NaOH, • activating the layer of CMD-3D with an activation solution, which comprised EDC and NHS. • treating the layer of CMD-3D with an aqueous solution, which comprised MES (the bulk concentration of MES was 5 mM and pH 5.0), • deactivating the functional layer AF1 by exposing it to an aqueous solution, which comprised ethanolamine (pH 8.0). • washing the functional layer AF1 with an aqueous solution, which comprised 50 mM NaOH. […]
# The curve ϕAUX,CH2(t) may be calculated e.g. by using a modified equation (7h), where the parameter C may be determined by using a modified equation (7d), and the parameter D may be determined by using a modified equation (7i). […]
substance,measurement,value
indomethacine,"average value of the auxiliary angle ϕAUX,CH2(t) of the second sample region (reference, no HSA)",substantially independent of the bulk concentration cM1
